# Residues, ends and D or L forms follow the SMILES beside them.
# Tests used:
# Format in all cases: physicochemical
# [1] = Gelation test when adding methylparaben; conditions: aqueous solution of 0.2 wt % methylparaben; 0.25, 0.5 or 1.0 wt % tested
# Protocol: An aqueous solution of 0.2 wt % methylparaben was prepared, and into the solution, free N-palmitoyl-Gly-His prepared in Example 4 was added so as to have a concentration of 0.25, 0.5, or 1.0 wt % to prepare a suspended mixture solution. Each mixture solution was heated at 95 to 99° C. until dissolved (for 6 to 25 minutes), and then allowed to cool to room temperature.
# [2] = Evaluation of gelation of free N-palmitoyl-Gly-His in solution containing inorganic salt, amino acid or organic substance
# Protocol: Free N-palmitoyl-Gly-His prepared in Example 4 was placed into a screw tube (Maruemu No. 1, manufactured by Maruemu Corp.). An aqueous solution dissolving each additive described in Table 7 was added into the screw tube so as to have a free N-palmitoyl-Gly-His concentration of 0.5% or 1% (w/v). The mixture was heated at 100° C. with a constant temperature heat block (manufactured by Nippon Genetics Co., Ltd.), and then allowed to stand at room temperature.
# In Table, a sample that formed a gel is shown as “O”, a sample that partially formed a gel is shown as “A”, and a sample without evaluation is shown as “-”.
# [3] = Evaluation of gelation of free N-palmitoyl-Gly-His in water and at various pHs; set-up: key: a sample that formed a gel is shown as “O”; a sample that formed a sol is shown as “X”; a sample without evaluation is shown as “-”
# Protocol: Free N-palmitoyl-Gly-His prepared in Example 4 was placed into a screw tube (Maruemu No. 1, manufactured by Maruemu Corp.). Each of the various solutions shown in Table 4 was added into the screw tube so as to have a free N-palmitoyl-Gly-His (also called Pal-GH (free)) concentration of 0.1%, 0.2%, 0.5%, 1%, or 2% (w/v). The mixture was heated at 100° C. with a constant temperature heat block (manufactured by Nippon Genetics Co., Ltd.), and then allowed to stand at room temperature.
# In Table, a sample that formed a gel is shown as “O”, a sample that formed a sol is shown as “X”, and a sample without evaluation is shown as “-”.
# [4] = Evaluation of gelation of free N-palmitoyl-Gly-His in propylene glycol (PG) solution; set-up: key: a sample that formed a gel is shown as “O”; a sample that partially formed a gel is shown as “A”; a sample that formed no gel is shown as “X”
# Protocol: Free N-palmitoyl-Gly-His prepared in Example 4 was placed into a screw tube (Maruemu No. 1, manufactured by Maruemu Corp.). Each of the propylene solutions having various concentrations shown in Table 6 was added into the screw tube so as to have a free N-palmitoyl-Gly-His concentration of 0.25%, 0.5%, or 1% (w/v). The mixture was heated at 100° C. with a constant temperature heat block (manufactured by Nippon Genetics Co., Ltd.), and then allowed to stand at room temperature.
# In Table, a sample that formed a gel is shown as “O”, a sample that partially formed a gel is shown as “A”, and a sample that formed no gel is shown as “X”.
# [5] = Gelation of free N-palmitoyl-Gly-His in 65% (w/w) propylene glycol aqueous solution containing lactic acid and potassium lactate; conditions: 65% (w/w) propylene glycol aqueous solution with 5% (w/w) potassium lactate:lactic acid (95:5)
# Protocol: Free N-palmitoyl-Gly-His (25 mg) obtained in Example 4 was placed in a screw tube (Maruemu Corp., No. 7). Sixty-five percent (w/w) propylene glycol aqueous solution was added so as to have a concentration of 0.25% (w/v), and a mixture of potassium lactate:lactic acid (95:5) was further added so as to have a concentration of 5% (w/w) with respect to the whole solution. The mixture was heated with a dry bath incubator (manufactured by First Gene) at 75° C. for 10 minutes. The obtained solution was transferred into a spray vial (Maruemu Corp., No. 3L), and allowed to cool to room temperature.
# Free N-palmitoyl-Gly-His (80 mg) obtained in Example 4 was placed into a screw tube (Maruemu Corp., No. 7). Sixty-five percent (w/w) propylene glycol aqueous solution was added so as to have a concentration of 0.2% (w/v), and a mixture of potassium lactate:lactic acid (95:5) was further added so as to have a concentration of 5% (w/w) with respect to the whole solution. The mixture was heated with a dry bath incubator (manufactured by First Gene) at 93° C. for 5 minutes. The obtained solution was transferred into a spray vial (Maruemu Corp., No. 3L), and allowed to cool to room temperature.
# [6] = Usable mediums: solubility and gel formation, conventional art vs palmitoyl-Gly-His; conditions: wide variety of mediums including 50 mM citrate buffer pH 5, 50 mM acetate buffer pH 5, ethanol/water with 80% or more ethanol
structure (smiles),measurement,setting,value
"CCCCCCCCCCCCCCCC(=O)NCC(=O)N[C@@H](Cc1c[nH]cn1)C(=O)O [Example 4, N-Palmitoyl-Gly-His] (HELM PEPTIDE1{[CCCCCCCCCCCCCCCC(=O)[*:2]].G.H}$$$$V2.0)",Concentration at which a transparent gel was obtained,[1],≥ 0.5 wt %
same,Gelation,"[2]; 0.5% (w/v), aqueous solution of Alanine 0.1 wt %",◯
same,Gelation,"[2]; 0.5% (w/v), aqueous solution of Aspartic acid 0.27 wt %",◯
same,Gelation,"[2]; 0.5% (w/v), aqueous solution of Glycine 0.1 wt %",◯
same,Gelation,"[2]; 0.5% (w/v), aqueous solution of KCl 0.1 wt %",Δ
same,Gelation,"[2]; 0.5% (w/v), aqueous solution of KCl 0.5 wt %",Δ
same,Gelation,"[2]; 0.5% (w/v), aqueous solution of Lysine hydrochloride 0.1 wt %",Δ
same,Gelation,"[2]; 0.5% (w/v), aqueous solution of NaCl 0.1 wt %",Δ
same,Gelation,"[2]; 0.5% (w/v), aqueous solution of NaCl 0.5 wt %",◯
same,Gelation,"[2]; 0.5% (w/v), aqueous solution of Phenoxyethanol 0.25 wt %",◯
same,Gelation,"[2]; 1.0% (w/v), aqueous solution of KCl 0.1 wt %",◯
same,Gelation,"[2]; 1.0% (w/v), aqueous solution of KCl 0.5 wt %",◯
same,Gelation,"[2]; 1.0% (w/v), aqueous solution of NaCl 0.1 wt %",◯
same,Gelation,"[2]; 1.0% (w/v), aqueous solution of NaCl 0.5 wt %",◯
same,Gelation,"[2]; 1.0% (w/v), aqueous solution of Phenoxyethanol 0.25 wt %",◯
same,Gelation,"[3]; 0.1% (w/v), phosphate buffer solution pH 3",◯
same,Gelation,"[3]; 0.1% (w/v), phosphoric acid aqueous solution pH 2",◯
same,Gelation,"[3]; 0.1% (w/v), water",X
same,Gelation,"[3]; 0.2% (w/v), phosphate buffer solution pH 3",◯
same,Gelation,"[3]; 0.2% (w/v), phosphate buffer solution pH 5",◯
same,Gelation,"[3]; 0.2% (w/v), phosphate buffer solution pH 6",◯
same,Gelation,"[3]; 0.2% (w/v), phosphoric acid aqueous solution pH 2",◯
same,Gelation,"[3]; 0.2% (w/v), water",X
same,Gelation,"[3]; 0.5% (w/v), phosphate buffer solution pH 3",◯
same,Gelation,"[3]; 0.5% (w/v), phosphate buffer solution pH 5",◯
same,Gelation,"[3]; 0.5% (w/v), phosphate buffer solution pH 6",◯
same,Gelation,"[3]; 0.5% (w/v), phosphate buffer solution pH 7.5",◯
same,Gelation,"[3]; 0.5% (w/v), phosphate buffer solution pH 9",X
same,Gelation,"[3]; 0.5% (w/v), phosphate buffer solution pH 10",X
same,Gelation,"[3]; 0.5% (w/v), phosphoric acid aqueous solution pH 2",◯
same,Gelation,"[3]; 0.5% (w/v), water",X
same,Gelation,"[3]; 1.0% (w/v), phosphate buffer solution pH 5",◯
same,Gelation,"[3]; 1.0% (w/v), phosphate buffer solution pH 6",◯
same,Gelation,"[3]; 1.0% (w/v), phosphate buffer solution pH 7.5",◯
same,Gelation,"[3]; 1.0% (w/v), phosphate buffer solution pH 9",◯
same,Gelation,"[3]; 1.0% (w/v), phosphate buffer solution pH 10",◯
same,Gelation,"[3]; 1.0% (w/v), water",◯
same,Gelation,"[3]; 2.0% (w/v), phosphate buffer solution pH 9",◯
same,Gelation,"[3]; 2.0% (w/v), phosphate buffer solution pH 10",◯
same,Gelation,"[3]; 2.0% (w/v), water",◯
same,Gelation,"[4]; 0.25% (w/v), mass fraction PG/water + PG 0.1",Δ
same,Gelation,"[4]; 0.25% (w/v), mass fraction PG/water + PG 0.2",Δ
same,Gelation,"[4]; 0.25% (w/v), mass fraction PG/water + PG 0.3",Δ
same,Gelation,"[4]; 0.25% (w/v), mass fraction PG/water + PG 0.5",◯
same,Gelation,"[4]; 0.25% (w/v), mass fraction PG/water + PG 0.7",◯
same,Gelation,"[4]; 0.25% (w/v), mass fraction PG/water + PG 1.0",X
same,Gelation,"[4]; 0.5% (w/v), mass fraction PG/water + PG 0.1",Δ
same,Gelation,"[4]; 0.5% (w/v), mass fraction PG/water + PG 0.2",Δ
same,Gelation,"[4]; 0.5% (w/v), mass fraction PG/water + PG 0.3",◯
same,Gelation,"[4]; 0.5% (w/v), mass fraction PG/water + PG 0.5",◯
same,Gelation,"[4]; 0.5% (w/v), mass fraction PG/water + PG 0.7",◯
same,Gelation,"[4]; 0.5% (w/v), mass fraction PG/water + PG 1.0",X
same,Gelation,"[4]; 1.0% (w/v), mass fraction PG/water + PG 0.1",◯
same,Gelation,"[4]; 1.0% (w/v), mass fraction PG/water + PG 0.2",◯
same,Gelation,"[4]; 1.0% (w/v), mass fraction PG/water + PG 0.3",◯
same,Gelation,"[4]; 1.0% (w/v), mass fraction PG/water + PG 0.5",◯
same,Gelation,"[4]; 1.0% (w/v), mass fraction PG/water + PG 0.7",◯
same,Gelation,"[4]; 1.0% (w/v), mass fraction PG/water + PG 1.0",X
same,Gelation,"[5]; 0.2% (w/v), heated 93° C., 5 minutes",gelation
same,Gelation,"[5]; 0.25% (w/v), heated 75° C., 10 minutes",gelation
same,Gel formation,[6],can form a gel

# Reference: patent publication US9289496B2, “Lipid dipeptide and gel” (Nissan Chemical Industries, Ltd., priority 2008, dated 2016)
